Data published in patent US20250231157A1, “METHOD FOR DETERMINING THE PARTITION OF NAPHTHENIC ACIDS FROM A PRODUCTION WATER MIMICKING SYSTEM AND MIMICKING SYSTEM” (PETRÓLEO BRASILEIRO S.A. – PETROBRAS, priority 2023, published 2025).
Values joined by “and” are separate entries in the source; they are usually repeats but may differ in a detail not shown here. Equal values may be shown once.

Test: Partition equilibrium (migration to aqueous phase) heptol/water under pressure and temperature, central composite design, potentiometric titration
Format: physicochemical
Conditions: for Migration, Predicted: model value
Procedure: Three multivariate experimental designs (central composite designs) were performed in which the variables pressure (up to 1 MPa) and temperature (between 25° C. and 80° C.) were considered independent variables, with the migration of three acidic species as the response factor: benzoic, pentanoic and cyclohexanepentanoic acid. For this purpose, 5 levels were defined and gave rise to 10 experiments for each acidic species (Table 4), added to two control experiments (with higher pressure and temperature, as well as in the absence of pressure and at room temperature).
The experiments were performed with constant salinity of 3.5% (m·v^−1), constant heptol fraction (70:30, for heptane and toluene), and acidic species concentration of 0.03 M for benzoic and pentanoic acid, and 0.01 M for cyclohexanepentanoic acid. The results were evaluated with 95% confidence, using a response surface to estimate the maximum observable effect in each case, provided that the mathematical correlation was equal to or greater than R^2: 0.75.

[1] = 20 °C, 0.1 MPa (experiment 12, control)
[2] = 38 °C, 0.25 MPa (experiment 1), heptol 70:30, 3.5% salinity
[3] = 52 °C, 0.5 MPa (experiments 9 and 10)
[4] = 52 °C, 0.5 MPa (experiments 9 and 10, centre point)
[5] = 80 °C, 1 MPa (experiment 11, control)

Row | Structure (SMILES) | Migration, Measured [1] | Migration, Increment (related to control) (25 °C, 0.5 MPa (experiment 5)) | Migration, Measured (25 °C, 0.5 MPa (experiment 5)) | Migration, Increment (related to control) (38 °C, 0.25 MPa (experiment 1)) | Migration, Measured [2] | Migration, Increment (related to control) (38 °C, 0.75 MPa (experiment 3)) | Migration, Measured (38 °C, 0.75 MPa (experiment 3)) | Migration, Increment (related to control) (52 °C, 0.1 MPa (experiment 7)) | Migration, Measured (52 °C, 0.1 MPa (experiment 7)) | Migration, Measured [4] | Migration, Increment (related to control) (52 °C, 1 MPa (experiment 8)) | Migration, Measured (52 °C, 1 MPa (experiment 8)) | Migration, Increment (related to control) (66 °C, 0.25 MPa (experiment 2)) | Migration, Measured (66 °C, 0.25 MPa (experiment 2)) | Migration, Increment (related to control) (66 °C, 0.75 MPa (experiment 4)) | Migration, Measured (66 °C, 0.75 MPa (experiment 4)) | Migration, Increment (related to control) (80 °C, 0.5 MPa (experiment 6)) | Migration, Measured (80 °C, 0.5 MPa (experiment 6)) | Migration, Increment (related to control) (80 °C, 1 MPa (experiment 11)) | Migration, Measured [5] | further results
1 | CCCCC(=O)O [Pentanoic Acid, pentanoic acid] | 86.6 %, mol | −10.8 %, mol | 77.3 %, mol | −13.3 %, mol | 75.1 %, mol | −12.2 %, mol | 76.1 %, mol | −1.5 %, mol | 85.3 %, mol | 88.5 %, mol and 88.2 %, mol | 3.1 %, mol | 89.4 %, mol | −4.1 %, mol | 83.1 %, mol | −5.2 %, mol | 82.2 %, mol | 0.5 %, mol | 87.1 %, mol | 2.5 %, mol | 88.8 %, mol | Migration, Increment (related to control) [3]: 2.2 %, mol and 1.8 %, mol; Migration, Predicted (25 °C, 0.5 MPa (experiment 5)): 74.2 %, mol; Migration, Predicted (38 °C, 0.25 MPa (experiment 1)): 79.9 %, mol; Migration, Predicted (38 °C, 0.75 MPa (experiment 3)): 82.2 %, mol; Migration, Predicted (52 °C, 0.1 MPa (experiment 7)): 83.6 %, mol; Migration, Predicted [3]: 85.4 %, mol; Migration, Predicted (52 °C, 1 MPa (experiment 8)): 86.3 %, mol; Migration, Predicted (66 °C, 0.25 MPa (experiment 2)): 86.5 %, mol; Migration, Predicted (66 °C, 0.75 MPa (experiment 4)): 86.9 %, mol; Migration, Predicted (80 °C, 0.5 MPa (experiment 6)): 85.5 %, mol; Migration, Predicted (80 °C, 1 MPa (experiment 11)): 85.4 %, mol; Decrease in the tendency to migrate relative to control, maximum over the design (pressure up to 1 MPa, 25-80 °C): up to 13.3 % mol; Increase in migration relative to control, maximum over the design (pressure up to 1 MPa, 25-80 °C): up to 3.1 % mol
2 | O=C(O)CCCCC1CCCCC1 [Cyclohexanepentanoic Acid, cyclohexanepentanoic acid] | 4.0 %, mol | −39.73 %, mol | 2.4 %, mol | −42.22 %, mol | 2.3 %, mol | 104.3 %, mol | 8.2 %, mol | −29.8 %, mol | 2.8 %, mol | 2.6 %, mol and 3.1 %, mol | 76.99 %, mol | 7.1 %, mol | −37.25 %, mol | 2.5 %, mol | 106.79 %, mol | 8.3 %, mol | 157.42 %, mol | 10.3 %, mol | −34.77 %, mol | 2.6 %, mol | Migration, Predicted (25 °C, 0.5 MPa (experiment 5)): 4.0 %, mol; Migration, Predicted (38 °C, 0.25 MPa (experiment 1)): 1.7 %, mol; Migration, Predicted (38 °C, 0.75 MPa (experiment 3)): 5.1 %, mol; Migration, Predicted (52 °C, 0.1 MPa (experiment 7)): 1.9 %, mol; Migration, Predicted [3]: 3.5 %, mol; Migration, Predicted (52 °C, 1 MPa (experiment 8)): 8.6 %, mol; Migration, Predicted (66 °C, 0.25 MPa (experiment 2)): 4.4 %, mol; Migration, Predicted (66 °C, 0.75 MPa (experiment 4)): 7.7 %, mol; Migration, Predicted (80 °C, 0.5 MPa (experiment 6)): 9.3 %, mol; Migration, Predicted (80 °C, 1 MPa (experiment 11)): 8.6 %, mol
3 | O=C(O)c1ccccc1 [Benzoic Acid, benzoic acid] | 57.0 %, mol | 2.7 %, mol | 58.6 %, mol | 6.9 %, mol | 61.0 %, mol | 4.6 %, mol | 59.7 %, mol | 16.4 %, mol | 66.4 %, mol | 65.3 %, mol and 65.2 %, mol | 16.8 %, mol | 66.7 %, mol | 21.2 %, mol | 69.2 %, mol | 19.8 %, mol | 68.4 %, mol | 27.9 %, mol | 73.0 %, mol | 26.3 %, mol | 72.1 %, mol | Migration, Increment (related to control) [3]: 14.5 %, mol and 14.3 %, mol; Migration, Predicted (25 °C, 0.5 MPa (experiment 5)): 57.5 %, mol; Migration, Predicted (38 °C, 0.25 MPa (experiment 1)): 62.5 %, mol; Migration, Predicted (38 °C, 0.75 MPa (experiment 3)): 62 %, mol; Migration, Predicted (52 °C, 0.1 MPa (experiment 7)): 66.1 %, mol; Migration, Predicted [3]: 66.6 %, mol; Migration, Predicted (52 °C, 1 MPa (experiment 8)): 65.5 %, mol; Migration, Predicted (66 °C, 0.25 MPa (experiment 2)): 69.8 %, mol; Migration, Predicted (66 °C, 0.75 MPa (experiment 4)): 69.8 %, mol; Migration, Predicted (80 °C, 0.5 MPa (experiment 6)): 72.7 %, mol; Migration, Predicted (80 °C, 1 MPa (experiment 11)): 66.6 %, mol
